# “And” between values parts separate entries of the source, which are not always exact repeats. Equal entries are not always repeated. “Also recorded” adds a separate entry of the source.
# Legend:
# PARS1 = target: T1, PARS1 (Homo sapiens, UniProt P07814); test: In vitro prolylation assay; assay type: biochemical
# T1 construct: His‐PARS1 (1001–1,512 aa); His; made in house; host or cells: Escherichia coli
# T1 sequence (P07814 1001-1512 limits assumed): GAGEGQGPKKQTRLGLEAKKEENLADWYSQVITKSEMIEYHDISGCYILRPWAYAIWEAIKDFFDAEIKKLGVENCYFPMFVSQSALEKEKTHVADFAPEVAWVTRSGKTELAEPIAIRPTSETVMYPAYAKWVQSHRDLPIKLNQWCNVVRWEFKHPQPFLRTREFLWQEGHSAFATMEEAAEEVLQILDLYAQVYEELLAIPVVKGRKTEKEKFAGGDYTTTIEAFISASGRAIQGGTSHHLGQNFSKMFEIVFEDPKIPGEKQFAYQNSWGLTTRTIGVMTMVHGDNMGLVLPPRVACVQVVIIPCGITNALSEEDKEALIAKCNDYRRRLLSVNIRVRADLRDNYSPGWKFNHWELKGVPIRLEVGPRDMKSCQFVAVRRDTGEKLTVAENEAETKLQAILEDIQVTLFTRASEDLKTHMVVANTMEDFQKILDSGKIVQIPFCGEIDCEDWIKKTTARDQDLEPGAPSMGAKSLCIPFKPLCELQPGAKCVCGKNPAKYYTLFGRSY
# Description: The enzyme reaction was initiated by the addition of 100 nM purified His‐PARS1 (1001–1,512 aa). After 5 min, the reaction mixture was quenched on Whatman filter paper presoaked with 5% trichloroacetic acid (TCA). The filter papers were washed three times in 5% TCA for 10 min at 4°C and once in 100% ethanol for 10 min. The filter papers were dried, and radioactivity was quantified using liquid scintillation counter (LSC).
# After 1 h, the reaction mixture was quenched on Whatman filter paper presoaked with 5% TCA. The filter papers were washed three times in 5% TCA for 10 min at 4°C and once in 100% ethanol for 10 min. The filter papers were dried, and radioactivity was quantified using LSC.
# [1] = Two‐week repeated‐dose toxicity study, HF versus DWN12088; assay type: in vivo, mice; settings: male, ICR (CrljOri: CD1), mouse, in vivo; oral once daily for 2 weeks, ICR mice
# Description: (§1) To compare the in vivo toxicity of HF and DWN12088, all experiments were conducted following the international guidelines on the ethical use of experimental animals and approved by the Institutional Animal Care and Use Committee of KNOTUS (KNOTUS IACUC 21‐KE‐250 and KNOTUS IACUC 21‐KE‐359). ICR (CrljOri: CD1) mice (7‐week‐old, male, obtained from Koatech) were randomized (n = 6 for each group) and then orally administered with the indicated amounts of HF or DWN12088 once daily for 2 weeks. In the high‐dose group, the dose of DWN12088 was reduced from 120 mg/kg to 90 mg/kg from day 6. […] Body weight was measured at day 1, 2, 3, 4, 5, 8, 14, and 15.
# (§2) After administering the drugs for 2 weeks, mice were fasted overnight and anesthetized with isoflurane. Blood samples were collected in EDTA‐coated tubes, and the following parameters were determined using a hematology analyzer (ADVIA 2120, SIEMENS, USA); red blood cell, platelet count, hematocrit, white blood cell, red cell distribution width, hemoglobin concentration distribution width, hemoglobin concentration, neutrophil, mean corpuscular volume, lymphocyte, mean cell hemoglobin, monocyte, mean cell hemoglobin concentration, eosinophil, mean platelet volume, basophil, reticulocytes, and large unstained cells.
# (§3) For clinical chemistry, the remaining blood samples were incubated in a vacutainer tube with clot activator and then centrifuged to prepare serum. The following parameters were measured in the serum using a chemistry analyzer (7180, Hitachi, Japan) and electrolyte analyzer (AVL 9180, Roche, Switzerland); aspartate aminotransferase, albumin, alanine aminotransferase, albumin/globulin ratio, alkaline phosphatase, blood urea nitrogen, creatine phosphokinase, creatinine, total bilirubin, inorganic phosphorus, glucose, calcium, total cholesterol, sodium, triglyceride, potassium, total protein, and chloride.
# (§4) After blood collection, blood was drained by incising the abdominal aorta and posterior vena cava, and all organs of the skin, brain, thoracic cavity, and abdominal cavity were observed. The relative weights of the lung, spleen, liver, heart, kidney, thymus, and testes were calculated by dividing the weight of each organ by the body weight. The experiments were conducted as non‐blind test.
# ICR (CrljOri: CD1) mice = test: as above; assay type: in vivo
# Description: as §1, §2, §3, §4
# PARS1 WT = target: T2, PARS1 WT (Homo sapiens, UniProt P07814); test: Microscale thermophoresis (MST), PARS1 WT; assay type: binding; settings: for Fraction bound: single replicates
# T2 construct: His‐PARS1 (1001–1,512 aa); made in house; host or cells: Escherichia coli
# T2 sequence (P07814 1001-1512 limits assumed): T1 sequence (P07814 1001-1512 limits assumed)
# [2] = 120 ➔ 90 mg/kg (from day 6) oral once daily
smiles,measurement,setting,value
O[C@H]1CCCN[C@@H]1CCCn1cnc2c(Cl)c(Cl)ccc21 [DWN12088],IC50,"PARS1; IC50, 1 μM Pro, 5 mM ATP",0.0761 µM
same,IC50,"PARS1; IC50, 10 μM Pro, 5 mM ATP",0.397 µM
same,IC50,"PARS1; IC50, 100 μM Pro, 2.5 mM ATP",5.94 µM
same,IC50,"PARS1; IC50, 100 μM Pro, 5 mM ATP",6.46 µM
same,IC50,"PARS1; IC50, 100 μM Pro, 10 mM ATP",3 µM
same,mode of PARS1 inhibition,PARS1; IC50 at different proline and ATP concentrations,"proline‐competitive and ATP‐uncompetitive; also recorded: competitive inhibitor for proline, and a mixed or uncompetitive inhibitor for ATP"
same,NOAEL at 2 weeks,[1],60 mg/kg
same,Hematology ↓,"ICR (CrljOri: CD1) mice; 60 mg/kg oral once daily, 2 weeks","HGB, MCHC"
same,Clinical chemistry ↑,ICR (CrljOri: CD1) mice; [2],"AST, ALT, ALP, GLU, BUN, CRE, IP, K^+"
same,Clinical chemistry ↓,ICR (CrljOri: CD1) mice; [2],"TP, TCHO"
same,Clinical signs,ICR (CrljOri: CD1) mice; [2],"Inanimation, hypothermia"
same,Hematology ↓,ICR (CrljOri: CD1) mice; [2],"RBC, HGB, MCHC"
same,Necropsy finding,ICR (CrljOri: CD1) mice; [2],• Pale liver (1/6) • Thymus atrophy (3/6) • Pale and large kidney (1/6) • Dark red contents in the stomach (1/6)
same,Organ weight ↑,ICR (CrljOri: CD1) mice; [2],"Kidney, liver"
same,Organ weight ↓,ICR (CrljOri: CD1) mice; [2],"Spleen, thymus"
same,Mortality: Terminal sacrifice,"ICR (CrljOri: CD1) mice; 120 ➔ 90 mg/kg (from day 6) oral once daily, days 2, 5, 6 and 12","Terminal sacrifice: 4/6 (Each animal on days 2, 5, 6, and 12)"
same,reduction in body weight,ICR (CrljOri: CD1) mice; all the tested doses,did not show weight loss
same,NOAEL of DWN12088 relative to that of HF,"ICR (CrljOri: CD1) mice; male, ICR (CrljOri: CD1), mouse, in vivo, 2 weeks",more than 160 times
same,"Fraction bound, average",PARS1 WT; Dose 30.5176 nM,-0.2054
same,Fraction bound,PARS1 WT; Dose 30.5176 nM,-0.1847 and -0.2552 and -0.1762
same,"Fraction bound, average",PARS1 WT; Dose 61.0352 nM,-0.1331
same,Fraction bound,PARS1 WT; Dose 61.0352 nM,-0.1271 and -0.1077 and -0.1644
same,"Fraction bound, average",PARS1 WT; Dose 122.07 nM,-0.0578
same,Fraction bound,PARS1 WT; Dose 122.07 nM,0.0166 and -0.0399 and -0.1500
same,"Fraction bound, average",PARS1 WT; Dose 244.141 nM,0.0543
same,Fraction bound,PARS1 WT; Dose 244.141 nM,-0.0356 and 0.0851 and 0.1134
same,"Fraction bound, average",PARS1 WT; Dose 488.281 nM,-0.0068
same,Fraction bound,PARS1 WT; Dose 488.281 nM,0.0147 and -0.0499 and 0.0148
same,"Fraction bound, average",PARS1 WT; Dose 976.562 nM,0.1887
same,Fraction bound,PARS1 WT; Dose 976.562 nM,0.1745 and 0.1271 and 0.2645
same,"Fraction bound, average",PARS1 WT; Dose 1953.12 nM,0.3166
same,Fraction bound,PARS1 WT; Dose 1953.12 nM,0.2796 and 0.3408 and 0.3294
same,"Fraction bound, average",PARS1 WT; Dose 3906.25 nM,0.1823
same,Fraction bound,PARS1 WT; Dose 3906.25 nM,0.1409 and 0.1539 and 0.2519
same,"Fraction bound, average",PARS1 WT; Dose 7812.5 nM,0.3895
same,Fraction bound,PARS1 WT; Dose 7812.5 nM,0.3262 and 0.4199 and 0.4224
same,"Fraction bound, average",PARS1 WT; Dose 15625 nM,0.4633
same,Fraction bound,PARS1 WT; Dose 15625 nM,0.4748 and 0.4733 and 0.4418
same,"Fraction bound, average",PARS1 WT; Dose 31250 nM,0.5523
same,Fraction bound,PARS1 WT; Dose 31250 nM,0.4690 and 0.5423 and 0.6454
same,"Fraction bound, average",PARS1 WT; Dose 62500 nM,0.5522
same,Fraction bound,PARS1 WT; Dose 62500 nM,0.5673 and 0.5892 and 0.5000
same,"Fraction bound, average",PARS1 WT; Dose 125000 nM,0.7606
same,Fraction bound,PARS1 WT; Dose 125000 nM,0.7942 and 0.7665 and 0.7210
same,"Fraction bound, average",PARS1 WT; Dose 250000 nM,0.9107
same,Fraction bound,PARS1 WT; Dose 250000 nM,0.9397 and 0.8612 and 0.9313
same,"Fraction bound, average",PARS1 WT; Dose 500000 nM,1.0322
same,Fraction bound,PARS1 WT; Dose 500000 nM,1.1218 and 1.1050 and 0.8698
same,"Fraction bound, average",PARS1 WT; Dose 1000000 nM,1.1170
same,Fraction bound,PARS1 WT; Dose 1000000 nM,1.1447 and 1.1049 and 1.1015
same,Kd,"PARS1 WT; Kd (Fit Results), His-PARS1 WT, doses of the sheet in nM",20500 nM
same,Kd,"PARS1 WT; Kd, MST, in the presence of ATP",20000 nM
same,Kd,"PARS1 WT; Kd, MST, in the presence of proline 30 μM",79000 nM
same,Kd,"PARS1 WT; Kd, MST, in the presence of proline 120 μM",108000 nM
same,Kd,"PARS1 WT; Kd, WT, 5 mM ATP, mean ± SD, unit inferred",20500 ± 8580 nM

# — paper PMC10331583, “Control of fibrosis with enhanced safety via asymmetric inhibition of prolyl‐tRNA synthetase 1” (EMBO Molecular Medicine, 2023)
